Assay type in all cases: cell-based, human
For one assay, the system named is arterial and venous ECs. Put plainly: IOX2 treatment of arterial and venous LSEC-LCs (HIF1a signalling), flow cytometry and qRT-PCR. From the text: FIG. 6: CD32B Expression is Regulated by Hypoxia/HIFla Signalling. […] (6B) Representative flow cytometric analysis of normoxic cultured CD31+ arterial LSEC-LCs treated with DMSO or IOX2 at increasing doses (days 12-16). (6C) qRT-PCR analysis of LSEC markers in day 16 arterial and venous LSEC-LCs cultured under normoxia conditions treated with DMSO or increasing IOX2 doses for 4 days (ANOVA with Bonferroni test, *p<0.05, comparing arterial and venous cells at give IOX2 doses). (6D) Representative flow cytometric analysis of day 16 arterial and venous CD31+ LSEC-LCs cultured under normoxic and hypoxic conditions with and without IOX2. For all qRT-PCR analysis, expression values are normalized to levels of the housekeeping gene TBP. Error bars represent SEM.
To further investigate the role of oxygen on LSEC marker expression, we next interrogated the HIFI a signaling pathway as a probable mechanistic regulator of EC gene expression.
On the technique in general: In flow cytometry, cells or beads pass a laser one at a time.

The subject of assay [1] is venous angioblast-derived populations. Kind of assay: LSEC-LC specification of venous angioblast-derived populations, RT-qPCR of LSEC associated markers. The conditions noted are these: for expression of LSEC associated markers (LYVE1, STAB2, FCGR2B, F8): treated every 2 days for 4 days, RT-qPCR of bulk populations. On the procedure: (3A) Schematic of EB-based hPSC-derived day 4 mesoderm differentiation to venous angioblasts, endothelial cells and LSEC-like cells (LSEC-LCs). […] For all qRT-PCR analysis, expression values are normalized to levels of the housekeeping gene TBP. Error bars represent SEM.
The resulting bulk populations were analyzed for expression of LSEC associated markers by RT-qPCR (FIG. 3B). Based on immunofluorescence (Strauss et al., 2017), flow cytometry (Fomin et al., 2013), bulk RNA-seq (Shahani et al., 2014), and recent single cell RNA-seq of human liver (MacParland et al., 2018) studies, human LSECs are distinguished by the co-expression of surface receptors, secreted proteins, and transcription factors including, LYVE1, CD14, CD32B (FCGR2B), CD36, CD54 (ICAM1), CD73, CD144, CD206 (MRC1), STAB1, STAB2, CLEC1B, PLAVP, GATA4 and F8 among others. Additionally, they express lower levels of canonical vascular markers such as CD31(PECAM1), CD34, CD105, CD309 (KDR), and VWF than portal arterial and venous endothelial cells. As a candidate marker set we focused the analysis on expression of scavenger receptors LYVE1, STAB2, CD32B/FCGR2B, F8, and VWF.
(In general: Quantitative PCR measures a nucleic acid by following its amplification.)

In assay [2] the test system is tdRFP+ CD31+ CD32+ LYVE1+ cells. Put plainly: Fenestration by scanning electron microscopy after latrunculin A stimulation. An excerpt:
FIG. 11: hPSC-Derived, In Vivo Matured LSECs are Fenestrated and Scavenge E. coli Bioparticles. (11A) Representative scanning electron microscopic images of primary human insitu vasculature imaged on the cut surface of fresh fixed liver tissue. LSECs, terminal portal venous endothelium and hepatic artery endothelium are shown for comparison of presence (indicated by white arrows) or absence of fenestrations. (11B) Representative scanning electron microscopic images of day 8 venous angioblast-derived, in vivo-matured, FACS-isolated based on indicated marker panels, overnight-cultured, treated for 30 minutes with or without fenestration (white arrows) stimulating 0.1 μg/ml Latrunculin A, fixed and processed for SEM. Imaging conditions and scale bar are indicated on each image. (11C) Quantification of fenestrated cells (>10 fenestrations arranged in a defined sieve plate cluster), endothelial cells (smooth edged cells with angiogenic lateral sprouts free from fibroblast-like adhesions), non-endothelial cells (fibroblast-like cells and rounded cells) was performed manually on the indicated numbers of cells from a total of at least 4 independent replicates pooling the data. Comparative in vitro derived cells including venous LSEC-LCs sorted as CD31+CD32+LVYE1+ on day 18, replated and cultured for an additional 10 days in addition to standard multi-donor derived HUVECs that were also quantified with and without Latrunculin A stimulation. (11D-11E) Quantification of fenestration size (longest diameter) in (11C) primary human LSECs in situ (black), venous angioblast-derived, in vivo matured and isolated LSECs with (white) and without (grey) latrunculin A stimulation. (11E) Quantification of surface area of LSECs covered by fenestrations before and after latrunculin stimulation. Error bars represent SEM. […]

In assay [3] the test system is hPSC-derived day 4 mesoderm. Kind of assay: VEGF and bFGF titration on day 4 mesoderm cultures, day 6 flow cytometry for CD34+ angioblast subpopulations. On the procedure: (1A) Schematic of EB-based hPSC differentiation to venous angioblasts. (1B) Heatmap comparing kinetic gene expression profiles of day 0-8 bulk EB populations and day 8 CD34+ MACS enriched angioblasts following venous differentiation (day 4-8 10 ng/ml VEGFA, 30 ng/ml bFGF 10 μm GSI) as in (1A). High (dark) and low (light) expression levels are indicated for each gene. (1C) Representative flow cytometric analysis of day 4 KDR+CD56+CD235a-mesodermal cells and day 8 CD34+CD31 low venous angioblasts before and after MACS enrichment. […] For all qRT-PCR analysis, expression values are normalized to levels of the housekeeping gene TBP. Error bars represent SEM.
Previous work from our group (Ditadi et al., 2015) and others (Zhang et al., 2017), has shown that VEGF, bFGF, NOTCH signaling play a role in the specification of arterial and venous vascular fates in hPSC differentiation cultures. The effects of VEGF signaling in promoting arterial and venous development were assessed. To address this, different concentrations of VEGF (0 to 100 ng/ml) were added to day 4 cultures that contained low amounts of bFGF (5 ng/ml) and the resulting day 6 populations were analyzed for the presence of CD34^+CD31^+ vascular cells and CD184^+CD73^lowCD34^+ and CD184^−CD73^+CD34^+ populations that we have previously shown contain progenitors specified to arterial and venous fates respectively.

Setting [4] is: arterial and venous ECs, normoxia, 4 days, qRT-PCR.
[5] abbreviates: tdRFP+ CD31+ CD32+ LYVE1+ cells, 30 minutes stimulation.
Where [6] appears, read: bFGF up to 30 ng/ml with VEGF 100 ng/ml, days 4-6.

Regarding `O=C(O)CNC(=O)c1c(O)c2ccccc2n(Cc2ccccc2)c1=O` [IOX2], the “conversion of CD31+ ECs to LYVE1+CD32+ LSEC-LCs” value with arterial and venous ECs (4-day application under hypoxic conditions, by day 16) is reported as “highly efficient conversion”. The CD32 protein entry with arterial and venous ECs (CD31+LYVE1+ arterial ECs under elevated oxygen conditions, increasing doses, days 12-16) is given as “dose dependant upregulation”. Moreover, in the assay on arterial and venous ECs (setting [4]), the “FCGR2B and F8 expression” value is recorded as “upregulated”; the LYVE1 expression entry is on record as “significantly downregulated”; the STAB2 expression entry is listed as “did not change”.

With `NC(=O)c1ccc(-c2nc(-c3ccc4c(c3)OCO4)c(-c3ccccn3)[nH]2)cc1` [SB431542, 4-(4-(benzo[d][1,3]dioxol-5-yl)-5-(pyridin-2-yl)-1H-imidazol-2-yl)benzamide], the “expression of LSEC associated markers (LYVE1, STAB2, FCGR2B, F8)” value in assay [1] is “induced the expression of STAB2 and FCGR2B but not LYVE1”.

With `C/C1=C/C(=O)O[C@@H]2C[C@@H](CC[C@H](C)/C=C\C=C\CC1)O[C@@](O)([C@@H]1CSC(=O)N1)C2` [latrunculin A], the induction of fenestrations entry in assay [2] (HUVECs and extended culture venous LSEC-LCs) is reported as “nor were they able to be induced to form fenestrations”. Besides, in assay [2] (setting [5]), the “cell surface covered by stimulated fenestrations” value was “approximately 40%” and the “size of the fenestration type that accounts for the increase” value is on record as ~60 nm.

Turning to VEGF, the “bias of CD34+ cells to arterial or venous subpopulation” value in assay [3] (100 ng/ml VEGF, 5 ng/ml bFGF, day 6) is listed as “predominantly CD184^+CD73^low arterial-like population”. For the same molecule, in assay [3] (VEGF 0 to 100 ng/ml added to day 4 cultures with 5 ng/ml bFGF, day 6), the “frequency of CD34+ cells” value was “significant and dose dependant increase”.

“bFGF: bFGF (also referred to as FGF2), growth factor”: in assay [3] (setting [6]), the “size of the CD34+CD184+CD73low subpopulation” value is on record as “decrease”, the “size of the CD34+CD184-CD73- subpopulation” value is given as “increase” and the “size of the total CD34+ population” value is “modest increase”.

B1: VEGFC: VEGFC growth factor, 0 or 100 ng/ml (protein, UniProt P49767 112-227, looked up)
Vascular endothelial growth …: AHYNTEILKSIDNEWRKTQCMPREVCIDVGKEFGVATNTFFKPPCVSVYRCGGCCNSEGLQCMNTSTSYLSKTLFEITVPLSQGPKPVTISFANHTSCRCMSKLDVYRQVHSIIRR
B1: the “expression of lymphatic markers PROX1 and FLT4” value in assay [1] (VEGFC 100 ng/ml, 4 days, RT-qPCR) is reported as “increased”. In assay [1], the “expression of LSEC associated markers (LYVE1, STAB2, FCGR2B, F8)” value is on record as “modestly enhance the expression of some LSEC markers”.

These data come from patent US20220025324A1, “METHODS OF PRODUCING VENOUS ANGIOBLASTS AND SINUSOIDAL ENDOTHELIAL CELL-LIKE CELLS AND COMPOSITIONS THEREOF” (University Health Network, priority 2018, published 2022).
